Data: ChEMBL document CHEMBL1201861, “Genomics of Drug Sensitity in Cancer screening data, Wellcome Trust Sanger Institute”

Columns and labels:
OAW-42 = assay: cells; assay type: functional, cell-based, Homo sapiens;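 note: growth inhibition of OAW-42 cells, read out with a cell viability assay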
Description: SANGER: Inhibition of human OAW-42 cell growth in a cell viability assay.

YH-13 = assay: cells; assay type: functional, cell-based, Homo sapiens; conditions: Homo sapiens, YH-13;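 note: cell viability readout of growth suppression in the human YH-13 cell line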
Description: SANGER: Inhibition of human YH-13 cell growth in a cell viability assay.

CaR-1 = assay: cells; assay type: functional, cell-based, Homo sapiens;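 note: growth inhibition of human CaR-1 cancer cells, read out with a cell viability assay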
Description: SANGER: Inhibition of human CaR-1 cell growth in a cell viability assay.

OE19 = assay: cells; assay type: functional, cell-based, Homo sapiens;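 note: growth inhibition of OE19 cells, measured through a cell viability read-out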
Description: SANGER: Inhibition of human OE19 cell growth in a cell viability assay.

H9 = assay: cells; assay type: functional, cell-based, Homo sapiens; conditions: Homo sapiens, H9
Description: SANGER: Inhibition of human H9 cell growth in a cell viability assay.

OVCAR-3 = assay: cells; assay type: functional, cell-based, Homo sapiens;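 note: growth inhibition of human OVCAR-3 cells, determined by a cell viability assay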
Description: SANGER: Inhibition of human OVCAR-3 cell growth in a cell viability assay.

KP-4 = assay: cells; assay type: functional, cell-based, Homo sapiens;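 note: human KP-4 cells, with growth inhibition read out through a cell viability assay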
Description: SANGER: Inhibition of human KP-4 cell growth in a cell viability assay.

TGBC11TKB = assay: cells; assay type: functional, cell-based, Homo sapiens; conditions: Homo sapiens, TGBC11TKB;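 note: growth inhibition of human TGBC11TKB cells, measured by a cell viability assay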
Description: SANGER: Inhibition of human TGBC11TKB cell growth in a cell viability assay.

SW48 = assay: cells; assay type: functional, cell-based, Homo sapiens;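 note: growth inhibition of SW48 cells, read out with a cell viability assay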
Description: SANGER: Inhibition of human SW48 cell growth in a cell viability assay.

U2OS = assay: cells; assay type: functional, cell-based, Homo sapiens, U-2-OS;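 note: growth inhibition of human U-2-OS cells, determined with a cell viability assay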
Description: SANGER: Inhibition of human U-2-OS cell growth in a cell viability assay.

A-427 = assay: cells; assay type: functional, cell-based, Homo sapiens;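 note: growth inhibition of human A-427 cells, read out by a cell viability assay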
Description: SANGER: Inhibition of human A427 cell growth in a cell viability assay.

SW 1116 = assay: cells; assay type: functional, cell-based, Homo sapiens; conditions: Homo sapiens, SW 1116;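 note: growth inhibition of SW1116 cells, read out with a cell viability assay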
Description: SANGER: Inhibition of human SW1116 cell growth in a cell viability assay.

TI-73 = assay: cells; assay type: functional, cell-based, Homo sapiens; conditions: Homo sapiens, TI-73;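 note: cell viability assay measuring how much compounds suppress growth of the cultured cell line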
Description: SANGER: Inhibition of human TI-73 cell growth in a cell viability assay.

TYK-nu = assay: cells; assay type: functional, cell-based, Homo sapiens;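 note: growth inhibition of human TYK-nu cells, read out by a cell viability assay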
Description: SANGER: Inhibition of human TYK-nu cell growth in a cell viability assay.

639-V = assay: cells; assay type: functional, cell-based, Homo sapiens;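 note: growth inhibition of 639-V cells, read out with a cell viability assay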
Description: SANGER: Inhibition of human 639-V cell growth in a cell viability assay.

KU-19-19 = assay: cells; assay type: functional, cell-based, Homo sapiens
Description: SANGER: Inhibition of human KU-19-19 cell growth in a cell viability assay.

NCI-H2228 = assay: cells; assay type: functional, cell-based, Homo sapiens;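 note: growth inhibition of human NCI-H2228 cells, read out by a cell viability assay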
Description: SANGER: Inhibition of human NCI-H2228 cell growth in a cell viability assay.

NCI-H1975 = assay: cells; assay type: functional, cell-based, Homo sapiens; conditions: Homo sapiens, NCI-H1975
Description: SANGER: Inhibition of human NCI-H1975 cell growth in a cell viability assay.

U-251 = assay: cells; assay type: functional, cell-based, Homo sapiens;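 note: growth inhibition of human U-251 cells, read out through a cell viability assay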
Description: SANGER: Inhibition of human U251 cell growth in a cell viability assay.

23132-87 = assay: cells; assay type: functional, cell-based, Homo sapiens
Description: SANGER: Inhibition of human 23132-87 cell growth in a cell viability assay.

NCI-H630 = assay: cells; assay type: functional, cell-based, Homo sapiens; conditions: Homo sapiens, NCI-H630;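 note: growth inhibition of NCI-H630 cells, read out with a cell viability assay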
Description: SANGER: Inhibition of human NCI-H630 cell growth in a cell viability assay.

NCI-H2291 = assay: cells; assay type: functional, cell-based, Homo sapiens; conditions: Homo sapiens, NCI-H2291
Description: SANGER: Inhibition of human NCI-H2291 cell growth in a cell viability assay.

COR-L23 = assay: cells; assay type: functional, cell-based, Homo sapiens;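 note: cell viability assay measuring how strongly compounds suppress growth of COR-L23 cells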
Description: SANGER: Inhibition of human COR-L23 cell growth in a cell viability assay.

Kasumi 1 = assay: cells; assay type: functional, cell-based, Homo sapiens; conditions: Homo sapiens, Kasumi 1;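 note: growth inhibition of human Kasumi-1 cells, read out by a cell viability assay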
Description: SANGER: Inhibition of human KASUMI-1 cell growth in a cell viability assay.

Raji = assay: cells; assay type: functional, cell-based, Homo sapiens;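 note: cell viability assay measuring inhibition of Raji cell growth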
Description: SANGER: Inhibition of human Raji cell growth in a cell viability assay.

EB-3 = assay: cells; assay type: functional, cell-based, Homo sapiens;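 note: human EB-3 cells, growth inhibition read out via a cell viability assay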
Description: SANGER: Inhibition of human EB-3 cell growth in a cell viability assay.

8305C = assay: cells; assay type: functional, cell-based, Homo sapiens
Description: SANGER: Inhibition of human 8305C cell growth in a cell viability assay.

NCI-H1618 = assay: cells; assay type: functional, cell-based, Homo sapiens;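 note: growth inhibition of human NCI-H1618 cells, measured by a cell viability assay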
Description: SANGER: Inhibition of human NCI-H1618 cell growth in a cell viability assay.

NCI-H1734 = assay: cells; assay type: functional, cell-based, Homo sapiens;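 note: growth inhibition of human NCI-H1734 cells, read out with a cell viability assay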
Description: SANGER: Inhibition of human NCI-H1734 cell growth in a cell viability assay.

SNG-M = assay: cells; assay type: functional, cell-based, Homo sapiens
Description: SANGER: Inhibition of human SNG-M cell growth in a cell viability assay.

NCI-H322M = assay: cells; assay type: functional, cell-based, Homo sapiens;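 note: cell viability assay measuring inhibition of growth of human NCI-H322M cells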
Description: SANGER: Inhibition of human NCI-H322M cell growth in a cell viability assay.

CAL-120 = assay: cells; assay type: functional, cell-based, Homo sapiens;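 note: cell growth inhibition, read out as cell viability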
Description: SANGER: Inhibition of human CAL-120 cell growth in a cell viability assay.

PLC-PRF-5 = assay: cells; assay type: functional, cell-based, Homo sapiens;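 note: growth inhibition of human PLC-PRF-5 cells, read out with a viability assay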
Description: SANGER: Inhibition of human PLC-PRF-5 cell growth in a cell viability assay.

LU-99A = assay: cells; assay type: functional, cell-based, Homo sapiens;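 note: growth inhibition of LU-99A cells, read out with a cell viability assay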
Description: SANGER: Inhibition of human LU-99A cell growth in a cell viability assay.

DV-90 = assay: cells; assay type: functional, cell-based, Homo sapiens;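 note: Read-out is a viability assay, with IC50 reflecting the drop in DV-90 cell growth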
Description: SANGER: Inhibition of human DV-90 cell growth in a cell viability assay.

CMK = assay: cells; assay type: functional, cell-based, Homo sapiens;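 note: growth inhibition of CMK cells, read out as cell viability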
Description: SANGER: Inhibition of human CMK cell growth in a cell viability assay.

WSU-NHL = assay: cells; assay type: functional, cell-based, Homo sapiens;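 note: growth inhibition of human WSU-NHL cells, read out with a cell viability assay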
Description: SANGER: Inhibition of human WSU-NHL cell growth in a cell viability assay.

Calu-1 = assay: SANGER: Inhibition of human Calu-1 cell growth in a cell viability assay.; assay type: functional, cell-based
CCF-STTG1 = assay: cells; assay type: functional, cell-based, Homo sapiens;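 note: growth inhibition of human CCF-STTG1 cells, determined with a cell viability read-out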
Description: SANGER: Inhibition of human CCF-STTG1 cell growth in a cell viability assay.

IPC-298 = assay: SANGER: Inhibition of human IPC-298 cell growth in a cell viability assay.; assay type: functional, cell-based
EFE-184 = assay: cells; assay type: functional, cell-based, Homo sapiens
Description: SANGER: Inhibition of human EFE-184 cell growth in a cell viability assay.

MCF7 = assay: cells; assay type: functional, cell-based, Homo sapiens;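 note: growth inhibition of human MCF7 cells, read out with a cell viability assay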
Description: SANGER: Inhibition of human MCF7 cell growth in a cell viability assay.

IMR-5 = assay: cells; assay type: functional, cell-based, Homo sapiens;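 note: growth inhibition of human IMR-5 cells, read out with a cell viability assay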
Description: SANGER: Inhibition of human IMR-5 cell growth in a cell viability assay.

Panc1005 = assay: cells; assay type: functional, cell-based, Homo sapiens;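 note: growth inhibition of human PANC-10-05 cells, measured by a cell viability assay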
Description: SANGER: Inhibition of human PANC-10-05 cell growth in a cell viability assay.

For `CN(C)C(=N)NC(=N)N` [METFORMIN], the IC50 (OAW-42; Homo sapiens, OAW-42) was 18100 µM, the IC50 (YH-13) was > 20000 µM and the IC50 (CaR-1; Homo sapiens, CaR-1) was > 20000 µM. The IC50 (OE19; Homo sapiens, OE19) was > 20000 µM, the IC50 (H9) was 7140 µM and the IC50 (OVCAR-3; Homo sapiens, OVCAR-3) was 17600 µM. For the same compound, the IC50 (KP-4; Homo sapiens, KP-4) was 7050 µM, the IC50 (TGBC11TKB) was > 20000 µM and the IC50 (SW48; Homo sapiens, SW48) was > 20000 µM. For the same compound, the IC50 (U2OS; Homo sapiens, U2OS) was > 20000 µM, the IC50 (A-427; Homo sapiens, A-427) was 7170 µM and the IC50 (SW 1116) was > 20000 µM. For the same compound, the IC50 (TI-73) was 13600 µM, the IC50 (TYK-nu; Homo sapiens, TYK-nu) was 16500 µM and the IC50 (639-V; Homo sapiens, 639-V) was > 20000 µM. The IC50 (KU-19-19; Homo sapiens, KU-19-19) was 9610 µM, the IC50 (NCI-H2228; Homo sapiens, NCI-H2228) was > 20000 µM and the IC50 (NCI-H1975) was 11700 µM. For the same compound, the IC50 (U-251; Homo sapiens, U-251) was 9900 µM, the IC50 (23132-87; Homo sapiens) was 11200 µM and the IC50 (NCI-H630) was > 20000 µM. For the same compound, the IC50 (NCI-H2291) was > 20000 µM, the IC50 (COR-L23; Homo sapiens, COR-L23) was > 20000 µM and the IC50 (Kasumi 1) was 378 µM.
For BLEOMYCIN, the IC50 (OAW-42; oaw-42) was 0.832 µM, the IC50 (Raji; raji) was 1.85 µM and the IC50 (CaR-1; car-1) was 4.45 µM. The IC50 (OE19; oe19) was 2.14 µM, the IC50 (EB-3; eb-3) was 21.8 µM and the IC50 (OVCAR-3; ovcar-3) was 123 µM. The IC50 (8305C; 8305c) was 0.804 µM, the IC50 (KP-4; kp-4) was 2.17 µM and the IC50 (NCI-H1618; nci-h1618) was 5.99 µM. The IC50 (SW48; sw48) was 0.546 µM, the IC50 (U2OS; u-2-os) was 265 µM and the IC50 (A-427; a-427) was 0.000118 µM. For the same compound, the IC50 (NCI-H1734; nci-h1734) was 0.0174 µM, the IC50 (SNG-M; sng-m) was 0.831 µM and the IC50 (NCI-H322M; nci-h322m) was 7320 µM. For the same compound, the IC50 (CAL-120; cal-120) was 5.56 µM, the IC50 (PLC-PRF-5; plc-prf-5) was 281 µM and the IC50 (TYK-nu; tyk-nu) was 3.03 µM. For the same compound, the IC50 (LU-99A; lu-99a) was 0.00422 µM, the IC50 (639-V; 639-v) was 0.22 µM and the IC50 (DV-90; dv-90) was 182 µM. It also gave an IC50 (CMK; cmk) of 14.8 µM, an IC50 (WSU-NHL; wsu-nhl) of 31.6 µM and an IC50 (KU-19-19; ku-19-19) of 525 µM. For the same compound, the IC50 (NCI-H2228; nci-h2228) was 0.955 µM, the IC50 (Calu-1; calu-1) was 5.14 µM and the IC50 (CCF-STTG1; ccf-sttg1) was 4.56 µM. For the same compound, the IC50 (IPC-298; ipc-298) was 2.21 µM, the IC50 (U-251; u-251) was 4.36 µM and the IC50 (EFE-184; efe-184) was 383 µM. For the same compound, the IC50 (23132-87) was 0.131 µM, the IC50 (MCF7; mcf7) was 1.17 µM and the IC50 (IMR-5; imr-5) was 0.137 µM. For the same compound, the IC50 (COR-L23; cor-l23) was 0.0755 µM and the IC50 (Panc1005; panc1005) was 0.256 µM.
`O=C(O)c1ccc(-c2c[nH]c3ncc(-c4ccccc4)cc23)cc1C1CCCC1` [GSK-650394] was tested, and the IC50 (OAW-42; Homo sapiens, OAW-42) was > 16 µM, the IC50 (Raji; Homo sapiens, Raji) was > 16 µM and the IC50 (CaR-1; Homo sapiens, CaR-1) was > 16 µM. The IC50 (OE19; Homo sapiens, OE19) was > 16 µM, the IC50 (EB-3; Homo sapiens, EB-3) was > 16 µM and the IC50 (OVCAR-3; Homo sapiens, OVCAR-3) was > 16 µM. For the same compound, the IC50 (8305C; Homo sapiens, 8305C) was > 16 µM, the IC50 (KP-4; Homo sapiens, KP-4) was 5.19 µM and the IC50 (NCI-H1618; Homo sapiens, NCI-H1618) was > 16 µM. The IC50 (SW48; Homo sapiens, SW48) was > 16 µM, the IC50 (U2OS; Homo sapiens, U2OS) was > 16 µM and the IC50 (A-427; Homo sapiens, A-427) was 1.88 µM. The IC50 (NCI-H1734; Homo sapiens, NCI-H1734) was > 16 µM, the IC50 (SNG-M; Homo sapiens, SNG-M) was 1.8 µM and the IC50 (NCI-H322M; Homo sapiens, NCI-H322M) was > 16 µM. For the same compound, the IC50 (CAL-120; Homo sapiens, CAL-120) was > 16 µM, the IC50 (PLC-PRF-5; Homo sapiens, PLC-PRF-5) was > 16 µM and the IC50 (TYK-nu; Homo sapiens, TYK-nu) was > 16 µM. The IC50 (LU-99A; Homo sapiens, LU-99A) was > 16 µM, the IC50 (639-V; Homo sapiens, 639-V) was 5.17 µM and the IC50 (DV-90; Homo sapiens, DV-90) was > 16 µM. The IC50 (CMK; Homo sapiens, CMK) was 8.25 µM, the IC50 (WSU-NHL; Homo sapiens, WSU-NHL) was > 16 µM and the IC50 (KU-19-19; Homo sapiens, KU-19-19) was > 16 µM. For the same compound, the IC50 (NCI-H2228; Homo sapiens, NCI-H2228) was 4.64 µM, the IC50 (Calu-1; Homo sapiens, Calu-1) was > 16 µM and the IC50 (CCF-STTG1; Homo sapiens, CCF-STTG1) was 12.6 µM. The IC50 (IPC-298; Homo sapiens, IPC-298) was > 16 µM, the IC50 (U-251; Homo sapiens, U-251) was > 16 µM and the IC50 (EFE-184; Homo sapiens, EFE-184) was > 16 µM. The IC50 (23132-87; Homo sapiens) was 10.3 µM, the IC50 (MCF7; Homo sapiens, MCF7) was 1.82 µM and the IC50 (IMR-5; Homo sapiens, IMR-5) was 9.19 µM. It also gave an IC50 (COR-L23; Homo sapiens, COR-L23) of 4.76 µM and an IC50 (Panc1005; Homo sapiens, Panc1005) of 11.4 µM.
For `COc1cccc2c1C(=O)c1c(O)c3c(c(O)c1C2=O)C[C@@](O)(C(=O)CO)C[C@@H]3O[C@H]1C[C@H](N)[C@H](O)[C@H](C)O1` [DOXORUBICIN], the IC50 (OAW-42; Homo sapiens, OAW-42) was 0.154 µM, the IC50 (Raji; Homo sapiens, Raji) was 0.335 µM and the IC50 (CaR-1; Homo sapiens, CaR-1) was > 1.02 µM. It also gave an IC50 (OE19; Homo sapiens, OE19) of 0.2 µM, an IC50 (EB-3; Homo sapiens, EB-3) of 0.771 µM and an IC50 (OVCAR-3; Homo sapiens, OVCAR-3) of 0.47 µM. The IC50 (8305C; Homo sapiens, 8305C) was 0.0631 µM, the IC50 (KP-4; Homo sapiens, KP-4) was 0.0408 µM and the IC50 (NCI-H1618; Homo sapiens, NCI-H1618) was 0.104 µM. For the same compound, the IC50 (SW48; Homo sapiens, SW48) was 0.0497 µM, the IC50 (U2OS; Homo sapiens, U2OS) was > 1.02 µM and the IC50 (A-427; Homo sapiens, A-427) was 0.0118 µM. For the same compound, the IC50 (NCI-H1734; Homo sapiens, NCI-H1734) was 0.053 µM, the IC50 (SNG-M; Homo sapiens, SNG-M) was 0.0183 µM and the IC50 (NCI-H322M; Homo sapiens, NCI-H322M) was > 1.02 µM. The IC50 (CAL-120; Homo sapiens, CAL-120) was 0.778 µM, the IC50 (PLC-PRF-5; Homo sapiens, PLC-PRF-5) was 0.901 µM and the IC50 (TYK-nu; Homo sapiens, TYK-nu) was 0.663 µM. It also gave an IC50 (LU-99A; Homo sapiens, LU-99A) of 0.147 µM, an IC50 (639-V; Homo sapiens, 639-V) of 0.0159 µM and an IC50 (DV-90; Homo sapiens, DV-90) of 0.329 µM. For the same compound, the IC50 (CMK; Homo sapiens, CMK) was 0.0774 µM, the IC50 (WSU-NHL; Homo sapiens, WSU-NHL) was 0.155 µM and the IC50 (KU-19-19; Homo sapiens, KU-19-19) was > 1.02 µM. It also gave an IC50 (NCI-H2228; Homo sapiens, NCI-H2228) of 0.0135 µM, an IC50 (Calu-1; Homo sapiens, Calu-1) of 0.0736 µM and an IC50 (CCF-STTG1; Homo sapiens, CCF-STTG1) of 0.0355 µM. For the same compound, the IC50 (IPC-298; Homo sapiens, IPC-298) was 0.196 µM, the IC50 (U-251; Homo sapiens, U-251) was 0.0649 µM and the IC50 (EFE-184; Homo sapiens, EFE-184) was > 1.02 µM. For the same compound, the IC50 (23132-87; Homo sapiens) was 0.0154 µM, the IC50 (MCF7; Homo sapiens, MCF7) was 0.0117 µM and the IC50 (IMR-5; Homo sapiens, IMR-5) was 0.0347 µM. For the same compound, the IC50 (COR-L23; Homo sapiens, COR-L23) was 0.032 µM and the IC50 (Panc1005; Homo sapiens, Panc1005) was 0.0884 µM.
